Patent US20250215029A1 (Recludix Pharma, Inc., priority 2022, published 2025)
Where two headings read alike, the source gives them in different places.

How the values were obtained:
[1] = target: T1, Recombinant STAT3 protein (STAT3 (G127-I722)) (Homo sapiens, UniProt P40763); experiment: STAT3 Fluorescence Polarization (FP) Assay; format: binding; conditions: probe 5-FAM-GpYLPQTV-NH2 2 nM, 45-minute incubation
T1 construct: Recombinant STAT3 protein (STAT3 (G127-I722))
How it was run: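 Read-out is fluorescence polarization (mP) after 45 min at room temperature, with IC50 fitted by nonlinear regression against log compound concentration. Mixture: 25 nM STAT3 (G127-I722), 2 nM 5-FAM-GpYLPQTV-NH2 phosphopeptide, 10 mM HEPES pH 7.4 buffer, 1% DMSO.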

[2] = target: T2, Recombinant STAT6 protein (STAT6 (W123-T658)) (Homo sapiens, UniProt P42226); experiment: STAT6 Fluorescence Polarization (FP) Assay; format: binding; conditions: 45-minute incubation
T2 construct: Recombinant STAT6 protein (STAT6 (W123-T658))
T2 sequence (P42226 123-658): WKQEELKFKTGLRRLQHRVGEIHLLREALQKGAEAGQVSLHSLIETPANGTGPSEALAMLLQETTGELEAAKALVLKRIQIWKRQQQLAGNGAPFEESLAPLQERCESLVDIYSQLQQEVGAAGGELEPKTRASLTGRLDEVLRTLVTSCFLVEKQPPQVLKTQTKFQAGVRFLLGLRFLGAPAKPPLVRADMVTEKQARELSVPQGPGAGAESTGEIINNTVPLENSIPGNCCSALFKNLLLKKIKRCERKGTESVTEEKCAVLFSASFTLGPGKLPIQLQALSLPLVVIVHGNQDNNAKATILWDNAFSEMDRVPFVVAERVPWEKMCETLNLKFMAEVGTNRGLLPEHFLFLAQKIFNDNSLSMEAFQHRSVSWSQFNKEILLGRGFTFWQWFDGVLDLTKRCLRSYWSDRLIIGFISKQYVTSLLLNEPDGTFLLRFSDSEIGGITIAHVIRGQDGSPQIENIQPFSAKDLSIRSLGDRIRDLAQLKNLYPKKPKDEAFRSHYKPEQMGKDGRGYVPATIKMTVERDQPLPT
How it was run: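 Recombinant STAT6 (W123-T658) at 250 nM mixed with 2 nM 5-FAM phosphotyrosine peptide probe in HEPES pH 7.4 buffer with DTT, 1% DMSO final, added to serially diluted compounds. FP (mP) read after 45 min at room temperature; IC50 by nonlinear regression vs log concentration.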

[3] = STAT3 (G127-I722) 25 nM, read-out: STAT3 (FP assay IC50 class)
[4] = STAT6 (W123-T658) 250 nM, probe 5-FAM-Ap[…]-NH2 2 nM, read-out: STAT6 (FP assay IC50 class)
[5] = STAT3 25 nM, read-out: STAT3 (FP assay IC50)
[6] = STAT6 250 nM, probe 5-FAM-Ap[…]-NH2 2 nM, read-out: STAT6 (FP assay IC50)

T1 sequence (P40763 127-722): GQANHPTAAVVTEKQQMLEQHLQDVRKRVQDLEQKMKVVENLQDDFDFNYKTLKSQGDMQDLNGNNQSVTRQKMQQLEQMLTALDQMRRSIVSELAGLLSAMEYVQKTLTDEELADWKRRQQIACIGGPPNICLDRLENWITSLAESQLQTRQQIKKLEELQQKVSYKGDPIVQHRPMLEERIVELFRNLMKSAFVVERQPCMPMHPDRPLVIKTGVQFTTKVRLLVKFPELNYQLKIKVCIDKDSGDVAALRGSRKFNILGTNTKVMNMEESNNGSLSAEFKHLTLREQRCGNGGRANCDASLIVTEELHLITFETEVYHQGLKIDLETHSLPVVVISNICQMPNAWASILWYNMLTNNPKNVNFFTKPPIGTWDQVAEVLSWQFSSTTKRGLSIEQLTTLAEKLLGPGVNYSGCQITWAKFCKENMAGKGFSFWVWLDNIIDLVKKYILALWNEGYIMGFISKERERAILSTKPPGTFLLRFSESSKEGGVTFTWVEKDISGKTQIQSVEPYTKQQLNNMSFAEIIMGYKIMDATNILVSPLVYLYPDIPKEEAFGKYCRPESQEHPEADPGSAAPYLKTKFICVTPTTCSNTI

| IC50 [1, 3] [nM] | IC50 [2, 4] [µM] | IC50 [1, 5] [nM] | IC50 [2, 6] [µM] | Compound | IC50 ([2]; STAT6 (W123-T658) 250 nM, probe 5-FAM-ApYKPFQDLI-NH2 2 nM, read-out: STAT6 (FP assay IC50 class)) [µM] |
| --- | --- | --- | --- | --- | --- |
| < 100 | 3 to 30 |  |  | O=C(N[C@H]1CCC[C@H]2CC[C@@H](C(=O)N3CC(c4cnccc4N4CCOCC4)C3)N2C1=O)c1cc2cc(CP(=O)(O)O)ccc2s1 [Compound 750, ((2-(((3S,6S,9aS)-3-(3-(4-morpholinopyridin-3-yl)azetidine-1-carbonyl)-5-oxooctahydro-1H-pyrrolo[1,2-a]azepin-6-yl)carbamoyl)benzo [b]thiophen-5-yl)methyl) phosphonic acid] |  |
|  |  | < 100 | 0.3 to 3 | O=C(N[C@H]1CCCC[C@H]2CC[C@@H](C(=O)N3CC(F)(c4ccccc4)C3)N2C1=O)c1cc2cc(C(F)(F)P(=O)(O)O)ccc2s1 [Compound 53, (difluoro(2-(((3S,6S,10aS)-3-(3-fluoro-3-phenylazetidine-1-carbonyl)-5-oxodecahydropyrrolo [1,2-a]azocin-6-yl)carbamoyl)benzo[b]thiophen-5-yl)methyl) phosphonic acid] |  |
| < 100 | 3 to 30 |  |  | CS(=O)(=O)CC1CN(C(=O)[C@@H]2CC[C@@H]3CCC[C@H](NC(=O)c4cc5cc(C(F)P(=O)(O)O)ccc5s4)C(=O)N32)C1 (stereo partly drawn) [Compound 627, (fluoro(2-(((3S,6S,9aS)-3-(3-((methylsulfonyl)methyl)azetidine-1-carbonyl)-5-oxooctahydro-1H-pyrrolo[1,2-a]azepin-6-yl)carbamoyl)benzo [b]thiophen-5-yl)methyl) phosphonic acid] |  |
| < 100 | 3 to 30 |  |  | O=C(N[C@H]1CCCC[C@H]2CC[C@@H](C(=O)N3CC(OCC(F)F)(c4cccnc4)C3)N2C1=O)c1cc2cc(C(F)P(=O)(O)O)ccc2s1 (stereo partly drawn) [Compound 616, ((2-(((3S,6S,10aS)-3-(3-(2,2-difluoroethoxy)-3-(pyridin-3-yl)azetidine-1-carbonyl)-5-oxodecahydropyrrolo [1,2-a]azocin-6-yl)carbamoyl)benzo [b]thiophen-5-yl)fluoromethyl) phosphonic acid] |  |
|  |  | 100 to 1000 | 0.3 to 3 | O=C(N[C@H]1CCCC[C@H]2CC[C@@H](C(=O)Nc3ccc4nccc(Cl)c4c3)N2C1=O)c1cc2cc(C(F)(F)P(=O)(O)O)ccc2s1 [Compound 55, ((2-(((3S,6S,10aS)-3-((4-chloroquinolin-6-yl)carbamoyl)-5-oxodecahydropyrrolo [1,2-a]azocin-6-yl)carbamoyl)benzo[b]thiophen-5-yl)difluoromethyl) phosphonic acid] |  |
| 100 to 1000 | 0.3 to 3 |  |  | CN(Cc1cc(=O)[nH]c2ccccc12)C(=O)[C@@H]1CC[C@@H]2CCCC[C@H](NC(=O)c3cc4cc(C(F)(F)P(=O)(O)O)ccc4s3)C(=O)N21 [Compound 795, (difluoro(2-(((3S,6S,10aS)-3-(methyl((2-oxo-1,2-dihydroquinolin-4-yl)methyl)carbamoyl)-5-oxodecahydropyrrolo [1,2-a]azocin-6-yl)carbamoyl)benzo [b]thiophen-5-yl)methyl) phosphonic acid] |  |
| < 100 | 3 to 30 |  |  | O=C(N[C@H]1CCC[C@H]2CC[C@@H](C(=O)N3CC(c4cnccc4O)C3)N2C1=O)c1cc2cc(CP(=O)(O)O)ccc2s1 [Compound 539, ((2-(((3S,6S,9aS)-3-(3-(4-hydroxypyridin-3-yl)azetidine-1-carbonyl)-5-oxooctahydro-1H-pyrrolo[1,2-a]azepin-6-yl)carbamoyl)benzo[b]thiophen-5-yl)methyl)phosphonic acid] |  |
| < 100 | 0.3 to 3 |  |  | Cc1ccccc1C1CN(C(=O)[C@@H]2CC[C@@H]3CCC[C@H](NC(=O)c4cc5cc(C(F)(F)P(=O)(O)O)ccc5s4)C(=O)N32)C1 [Compound 778, (difluoro(2-(((3S,6S,9aS)-5-oxo-3-(3-(o-tolyl)azetidine-1-carbonyl)octahydro-1H-pyrrolo[1,2-a]azepin-6-yl)carbamoyl)benzo [b]thiophen-5-yl)methyl) phosphonic acid] |  |
| 1000 to 10000 | ≤ 0.3 |  |  | N#C[C@@H]1[C@@H](c2cncc(Cl)c2)CN(C(=O)[C@@H]2CC[C@@H]3CCCC[C@H](NC(=O)c4cc5cc([C@H](F)P(=O)(O)O)ccc5s4)C(=O)N32)C12CC2 (single isomer, unassigned) [Compound 845] |  |
| 100 to 1000 | 3 to 30 |  |  | O=C(N[C@H]1CCCC[C@H]2CC[C@@H](C(=O)N3CC(c4cccnc4)C3)N2C1=O)c1cc2cc(CP(=O)(O)O)ccc2s1 [Compound 663, ((2-(((3S,6S,10aS)-5-oxo-3-(3-(pyridin-3-yl)azetidine-1-carbonyl)decahydropyrrolo[1,2-a]azocin-6-yl)carbamoyl)benzo [b]thiophen-5-yl)methyl) phosphonic acid] |  |
|  |  | 100 to 1000 | 0.3 to 3 | CN(C)S(=O)(=O)N1CCN(C(=O)[C@@H]2CC[C@@H]3CCCC[C@H](NC(=O)c4cc5cc(C(F)(F)P(=O)(O)O)ccc5s4)C(=O)N32)CC1 [Compound 87, ((2-(((3S,6S,10aS)-3-(4-(N,N-dimethylsulfamoyl)piperazine-1-carbonyl)-5-oxodecahydropyrrolo [1,2-a]azocin-6-yl)carbamoyl)benzo[b]thiophen-5-yl)difluoromethyl) phosphonic acid] |  |
| 1000 to 10000 | 0.3 to 3 |  |  | O=C(N[C@H]1CCCC[C@H]2CC[C@@H](C(=O)N[C@@H]3CCN(C(=O)OC4CC4)C3)N2C1=O)c1cc2cc(C(F)P(=O)(O)O)ccc2s1 (stereo partly drawn) [Compound 527, ((2-(((3S,6S,10aS)-3-(((R)-1-(cyclopropoxycarbonyl)pyrrolidin-3-yl)carbamoyl)-5-oxodecahydropyrrolo[1,2-a]azocin-6-yl)carbamoyl)benzo[b]thiophen-5-yl)fluoromethyl)phosphonic acid] |  |
| < 100 | 3 to 30 |  |  | CN(C)c1ncncc1C1CN(C(=O)[C@@H]2CC[C@@H]3CCC[C@H](NC(=O)c4cc5cc([C@@H](F)P(=O)(O)O)ccc5s4)C(=O)N32)C1 (single isomer, unassigned) [Compound 667] |  |
| < 100 | 0.3 to 3 |  |  | O=C(N[C@H]1CCC[C@H]2CC[C@@H](C(=O)N3CC(c4cnccc4N4CCC4)C3)N2C1=O)c1cc2cc([C@@H](F)P(=O)(O)O)ccc2s1 (single isomer, unassigned) [Compound 741] |  |
| 100 to 1000 | 3 to 30 |  |  | O=C(N[C@H]1CCCC[C@H]2CC[C@@H](C(=O)N3Cc4cn(C5CC5)nc4C3)N2C1=O)c1cc2cc(C(F)(F)P(=O)(O)O)ccc2s1 [Compound 794, ((2-(((3S,6S,10aS)-3-(2-cyclopropyl-2,4,5,6-tetrahydropyrrolo[3,4-c]pyrazole-5-carbonyl)-5-oxodecahydropyrrolo [1,2-a]azocin-6-yl)carbamoyl)benzo [b]thiophen-5-yl)difluoromethyl) phosphonic acid] |  |
| < 100 | 3 to 30 |  |  | COc1ccncc1C1CN(C(=O)[C@@H]2CC[C@@H]3CCC[C@H](NC(=O)c4cc5cc(C(F)P(=O)(O)O)ccc5s4)C(=O)N32)C1 (stereo partly drawn) [Compound 206, (fluoro(2-(((3S,6S,9aS)-3-(3-(4-methoxypyridin-3-yl)azetidine-1-carbonyl)-5-oxooctahydro-1H-pyrrolo[1,2-a]azepin-6-yl)carbamoyl)benzo[b]thiophen-5-yl)methyl)phosphonic acid] |  |
| < 100 | 3 to 30 |  |  | CCOc1ccncc1C1CN(C(=O)[C@@H]2CC[C@@H]3CCC[C@H](NC(=O)c4cc5cc([C@H](F)P(=O)(O)O)ccc5s4)C(=O)N32)C1 (single isomer, unassigned) [Compound 772] |  |
| 100 to 1000 | 0.3 to 3 |  |  | Cn1ccc(C2(O)CCN(C(=O)[C@@H]3CC[C@@H]4CCCC[C@H](NC(=O)c5cc6cc(C(F)P(=O)(O)O)ccc6s5)C(=O)N43)C2)cc1=O (stereo partly drawn) [Compound 914, (fluoro(2-(((3S,6S,10aS)-3-(3-hydroxy-3-(1-methyl-2-oxo-1,2-dihydropyridin-4-yl)pyrrolidine-1-carbonyl)-5-oxodecahydropyrrolo [1,2-a]azocin-6-yl)carbamoyl)benzo [b]thiophen-5-yl)methyl) phosphonic acid] |  |

| Compound | IC50 [1, 3] [nM] | IC50 [2, 4] [µM] | IC50 [1, 5] [nM] | IC50 [2, 6] [µM] | IC50 ([2]; STAT6 (W123-T658) 250 nM, probe 5-FAM-ApYKPFQDLI-NH2 2 nM, read-out: STAT6 (FP assay IC50 class)) [µM] |
| --- | --- | --- | --- | --- | --- |
| COc1cncc([C@@H]2CN(C(=O)[C@@H]3CC[C@@H]4CCC[C@H](NC(=O)c5cc6cc([C@H](F)P(=O)(O)O)ccc6s5)C(=O)N43)C3(CC3)[C@H]2C#N)c1 (single isomer, unassigned) [Compound 847] | 1000 to 10000 |  |  |  | 0.3 to 3 |
